Reference: patent US20210395313A1, “PEPTIDE PAC1 ANTAGONISTS” (AMGEN INC., priority 2017, published 2021)
Where a SMILES comes first, the peptide text is derived from it. Bridges are numbered along the chain shown (N, C = ends). Where no end group is shown, it is not given here. [ ]: non-standard residue; d: D form. SeMet = C[Se]CC[C@H](N)C(=O)O

Experiments:
rat PAC1 receptor = molecular target: T1, rat PAC1 receptor (Rattus norvegicus, UniProt P32215); assay: LANCE Ultra cAMP accumulation antagonist assay in RG-2 cells; format: cell-based;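 also: RG-2 rat glioma cells endogenously expressing PAC1, test peptide preincubated 30 min, then PAC1 agonist added at its EC80 for 15 min, cAMP accumulation read by LANCE Ultra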
T1 construct: SHSY-5Y (human neuroblastoma cell line) and RG-2 (rat glioma cell line) cells endogenously express human and rat PAC1 receptors, respectively; endogenous in cells; host or cells: RG-2 rat glioma cells
T1 sequence (P32215 20-523): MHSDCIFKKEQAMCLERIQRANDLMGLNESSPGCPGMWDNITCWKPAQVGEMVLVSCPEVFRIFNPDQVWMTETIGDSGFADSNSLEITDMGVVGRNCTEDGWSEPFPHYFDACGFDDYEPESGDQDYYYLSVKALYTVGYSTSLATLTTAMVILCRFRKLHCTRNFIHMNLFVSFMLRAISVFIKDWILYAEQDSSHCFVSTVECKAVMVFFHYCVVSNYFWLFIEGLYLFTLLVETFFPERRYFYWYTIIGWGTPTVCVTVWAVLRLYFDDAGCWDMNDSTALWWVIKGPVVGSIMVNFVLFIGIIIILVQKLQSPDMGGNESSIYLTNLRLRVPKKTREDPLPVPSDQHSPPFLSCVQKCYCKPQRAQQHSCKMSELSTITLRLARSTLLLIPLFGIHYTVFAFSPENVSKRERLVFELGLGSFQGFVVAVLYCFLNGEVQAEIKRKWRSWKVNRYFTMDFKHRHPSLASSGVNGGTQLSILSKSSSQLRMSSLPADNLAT

human PAC1 receptor = molecular target: T2, human PAC1 receptor (Homo sapiens, UniProt P41586); assay: LANCE Ultra cAMP accumulation antagonist assay in SHSY-5Y cells; format: cell-based;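 also: inhibition of cAMP accumulation evoked by PAC1 agonist at its EC80 in SHSY-5Y cells endogenously expressing receptor, 30 min preincubation then 15 min agonist, TR-FRET readout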
T2 construct: SHSY-5Y (human neuroblastoma cell line) and RG-2 (rat glioma cell line) cells endogenously express human and rat PAC1 receptors, respectively; endogenous in cells; host or cells: SHSY-5Y human neuroblastoma cells
T2 sequence (P41586 21-468): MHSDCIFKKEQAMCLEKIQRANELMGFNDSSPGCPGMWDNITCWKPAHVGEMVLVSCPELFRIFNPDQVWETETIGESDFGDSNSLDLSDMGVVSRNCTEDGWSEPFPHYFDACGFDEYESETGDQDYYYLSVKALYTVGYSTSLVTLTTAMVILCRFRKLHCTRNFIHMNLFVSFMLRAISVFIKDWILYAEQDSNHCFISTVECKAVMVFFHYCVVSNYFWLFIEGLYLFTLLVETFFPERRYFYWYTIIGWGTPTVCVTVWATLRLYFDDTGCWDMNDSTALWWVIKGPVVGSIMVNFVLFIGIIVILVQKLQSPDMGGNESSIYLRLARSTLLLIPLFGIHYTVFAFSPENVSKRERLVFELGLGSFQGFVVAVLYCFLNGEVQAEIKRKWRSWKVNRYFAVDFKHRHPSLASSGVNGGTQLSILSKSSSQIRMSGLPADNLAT
Experimental: In order to determine the potency of peptide antagonists at the PAC1 receptor, functional cAMP accumulation assays using LANCE Ultra cAMP assay kit to measure the agonist and antagonist activity of PAC1 peptides were used. SHSY-5Y (human neuroblastoma cell line) and RG-2 (rat glioma cell line) cells endogenously express human and rat PAC1 receptors, respectively. Agonist activity of PAC1 peptides was tested by incubating with SHSY-5Y at 2,000 cells per well or RG-2 at 5,000 cells per well for 15 minutes at room temperature. PAC1 receptor agonist PACAP38 or maxadilan was included as a positive control. The reaction was stopped by adding detection mixture, europium (Eu) chelate-labeled cAMP tracer and cAMP-specific monoclonal antibodies labeled with the ULight™ dye, to all wells followed by a 60-minute incubation at room temperature. The assay plates were then read on an EnVision instrument at an emission wavelength of 665 and 615 nm and data were analyzed using Genedata Screener or GraphPad Prism software. A similar procedure was used in the antagonist assays by using a fixed concentration of PAC1 agonist. The concentrations of agonists were chosen based on their ECK) values at PAC1 receptors in SHSY-5Y or RG-2 cells. SHSY-5Y or RG-2 cells were added into 96-well half-area white plates. Serially diluted PAC1 peptides at ten concentrations were added and incubated for 30 minutes at room temperature. PAC1 agonist at EC80 concentration was then added and further incubated for 15 minutes at room temperature. The reaction was stopped by adding detection mixture to all wells followed by a 60-minute incubation at room temperature. The assay plates were read and analyzed the same way as that of agonist assay. Cells, agonists, and PAC1 peptides were prepared in freshly made assay buffer (F-12, 0.5 mM IBMX, 0.1 or 0.4% BSA (pH 7.4)). Detection mixture was made by mixing a 1/50 dilution of the Eu-cAMP tracer stock solution in cAMP Detection Buffer and a 1/150 dilution of the ULight-anti-cAMP stock solution in cAMP Detection Buffer. Europium (Eu) chelate-labeled cAMP tracer, cAMP-specific monoclonal antibodies labeled with the ULight™ dye, BSA, and detection buffer were provided in LANCE Ultra cAMP Kit from PerkinElmer

| Molecule | IC50 (rat PAC1 receptor) [nM] | IC50 (human PAC1 receptor) [nM] |
| --- | --- | --- |
| CC[C@H](C)[C@H](NC(=O)[C@H](C)NC(=O)[C@H](CCCCN)NC(=O)[C@H](CCCNC(=N)N)NC(=O)[C@H](Cc1ccccc1)NC(=O)[C@H](CCC(N)=O)NC(=O)[C@@H]1CSSC[C@H](N)C(=O)N[C@@H](CC(=O)O)C(=O)N[C@@H](C)C(=O)N[C@@H]([C@@H](C)O)C(=O)N1)C(=O)N[C@@H](CC(=O)O)C(=O)N[C@@H](CC(=O)O)C(=O)N[C@H]1CSSC[C@@H](C(=O)N[C@@H](CCSC)C(=O)N[C@@H](CCCCN)C(=O)N[C@@H](CCC(N)=O)C(=O)N[C@@H](CCCCN)C(=O)N[C@@H](CCCCN)C(=O)N[C@@H](CCCCN)C(=O)N[C@@H](CCC(=O)O)C(=O)N[C@@H](Cc2ccccc2)C(=O)N[C@@H](CCCCN)C(=O)N[C@@H](C)C(=O)NCC(=O)N[C@@H](Cc2c[nH]cn2)C(=O)O)NC(=O)[C@H](C)NC(=O)[C@H](CCCCN)NC(=O)[C@H](Cc2ccccc2)NC(=O)[C@H](C(C)C)NC(=O)[C@H](CO)NC(=O)[C@H](CO)NC(=O)[C@H](Cc2c[nH]cn2)NC(=O)[C@H](Cc2c[nH]cn2)NC(=O)[C@H](C)NC(=O)[C@H](CCC(N)=O)NC(=O)[C@H](CCCNC(=N)N)NC(=O)[C@H](C)NC1=O [compound 36] (H-CDATCQFRKAIDDCARQAHHSSVFKACMKQKKKEFKAGH-OH; disulfide 1-5, 14-27) | 0.01 to 1 | 0.01 to 1 |
| CDATCQFRKAIDDCAKQAHHSNVPGSVFKLCMKQKKKEFKAG-NH2 (disulfide 1-5, 14-31) [compound 18] | < 0.01 | 0.01 to 1 |
| CDATCQFRKAIDDCQKQAHHSNVPGSVFKACMLQKKKEFKAG-NH2 (disulfide 1-5, 14-31) [compound 103] | 0.01 to 1 | 1 to 100 |
| CDATCQFRKAIDDCQKQAHHSNVPGSVFKACVKQKKKEFKAG-NH2 (disulfide 1-5, 14-31) [compound 142] | 1 to 100 | 1 to 100 |
| CDATCQFRKAIDDCARQAHHSNVPGSVFKACMKQKKKEWKAGH-NH2 (disulfide 1-5, 14-31) [compound 2] | 0.01 to 1 | 0.01 to 1 |
| CC[C@H](C)[C@H](NC(=O)[C@H](C)NC(=O)[C@H](CCCCN)NC(=O)[C@H](CCCNC(=N)N)NC(=O)[C@H](Cc1ccccc1)NC(=O)[C@H](CCC(N)=O)NC(=O)[C@@H]1CSSC[C@H](N)C(=O)N[C@@H](CC(=O)O)C(=O)N[C@@H](C)C(=O)N[C@@H]([C@@H](C)O)C(=O)N1)C(=O)N[C@@H](CC(=O)O)C(=O)N[C@@H](CC(=O)O)C(=O)N[C@H]1CSSC[C@@H](C(=O)N[C@@H](CC[Se]C)C(=O)N[C@@H](CCCCN)C(=O)N[C@@H](CCC(N)=O)C(=O)N[C@@H](CCCCN)C(=O)N[C@@H](CCCCN)C(=O)N[C@@H](CCCCN)C(=O)N[C@@H](CCC(=O)O)C(=O)N[C@@H](Cc2c[nH]c3ccccc23)C(=O)N[C@@H](CCCCN)C(=O)N[C@@H](C)C(=O)NCC(N)=O)NC(=O)[C@H](C)NC(=O)[C@H](CCCCN)NC(=O)[C@H](Cc2ccccc2)NC(=O)[C@H](C(C)C)NC(=O)[C@H](CO)NC(=O)[C@H](CO)NC(=O)[C@H](Cc2c[nH]cn2)NC(=O)[C@H](Cc2ccc(O)cc2)NC(=O)[C@H](C)NC(=O)[C@H](CCC(N)=O)NC(=O)[C@H](CCCNC(=N)N)NC(=O)[C@H](C)NC1=O [compound 6] (H-CDATCQFRKAIDDCARQAYHSSVFKAC[SeMet]KQKKKEWKAG-NH2; disulfide 1-5, 14-27) | 0.01 to 1 | 0.01 to 1 |
| CC[C@H](C)[C@H](NC(=O)[C@H](C)NC(=O)[C@H](CCCCN)NC(=O)[C@H](CCCNC(=N)N)NC(=O)[C@H](Cc1ccccc1)NC(=O)[C@H](CCC(N)=O)NC(=O)[C@@H]1CSSC[C@H](N)C(=O)N[C@@H](CC(=O)O)C(=O)N[C@@H](C)C(=O)N[C@@H]([C@@H](C)O)C(=O)N1)C(=O)N[C@@H](CC(=O)O)C(=O)N[C@@H](CC(=O)O)C(=O)N[C@H]1CSSC[C@@H](C(=O)N[C@@H](CCSC)C(=O)N[C@@H](CCCCN)C(=O)N[C@@H](CCC(N)=O)C(=O)N[C@@H](CCCCN)C(=O)N[C@@H](CCCCN)C(=O)N[C@@H](CCCCN)C(=O)N[C@@H](CCC(=O)O)C(=O)N[C@@H](Cc2ccccc2)C(=O)N[C@@H](CCCCN)C(N)=O)NC(=O)[C@H](CCC(=O)O)NC(=O)[C@H](CCCCN)NC(=O)[C@H](Cc2ccccc2)NC(=O)[C@H](C(C)C)NC(=O)[C@H](CO)NC(=O)CNC(=O)[C@@H]2CCCN2C(=O)[C@H](C(C)C)NC(=O)[C@H](CC(N)=O)NC(=O)[C@H](CO)NC(=O)[C@H](Cc2c[nH]cn2)NC(=O)[C@H](Cc2c[nH]cn2)NC(=O)[C@H](C)NC(=O)[C@H](CCC(N)=O)NC(=O)[C@H](CCCCN)NC(=O)[C@H](CCC(N)=O)NC1=O [compound 293] | 0.01 to 1 | 1 to 100 |
| CC[C@H](C)[C@H](NC(=O)[C@H](C)NC(=O)[C@H](CCCCN)NC(=O)[C@H](CCCNC(=N)N)NC(=O)[C@H](Cc1ccccc1)NC(=O)[C@H](CCC(N)=O)NC(=O)[C@@H]1CSSC[C@H](N)C(=O)N[C@@H](CC(=O)O)C(=O)N[C@@H](C)C(=O)N[C@@H]([C@@H](C)O)C(=O)N1)C(=O)N[C@@H](CC(=O)O)C(=O)N[C@@H](CC(=O)O)C(=O)N[C@H]1CSSC[C@@H](C(=O)N[C@@H](CCSC)C(=O)N[C@@H](CCCCN)C(=O)N[C@@H](CCC(N)=O)C(=O)N[C@@H](CCCCN)C(=O)N[C@@H](CCCCN)C(=O)N[C@@H](CCCCN)C(=O)N[C@@H](CCC(=O)O)C(=O)N[C@@H](Cc2c[nH]c3ccccc23)C(=O)N[C@@H](CCCCN)C(=O)N[C@@H](C)C(=O)NCC(N)=O)NC(=O)[C@H](C)NC(=O)[C@H](CCCCN)NC(=O)[C@H](Cc2ccccc2)NC(=O)[C@H](CO)NC(=O)[C@H](CO)NC(=O)[C@H](Cc2c[nH]cn2)NC(=O)[C@H](Cc2ccc(O)cc2)NC(=O)[C@H](C)NC(=O)[C@H](CCC(N)=O)NC(=O)[C@H](CCCNC(=N)N)NC(=O)[C@H](C)NC1=O [compound 20] (H-CDATCQFRKAIDDCARQAYHSSFKACMKQKKKEWKAG-NH2; disulfide 1-5, 14-26) | 0.01 to 1 | 0.01 to 1 |
| CDATCQFRKAIDDCDRQAHHSNVPGSVFKACMKQKKKEWKAN (disulfide 1-5, 14-31) [compound 159] | 0.01 to 1 | 1 to 100 |
| CDATCQFRKAIDDCDKQAHHSNVPGSVFKACMKQKKKEFQAG-NH2 (disulfide 1-5, 14-31) [compound 169] | 0.01 to 1 | 0.01 to 1 |
| CC[C@H](C)[C@H](NC(=O)[C@H](C)NC(=O)[C@H](CCCCN)NC(=O)[C@H](CCCNC(=N)N)NC(=O)[C@H](Cc1ccccc1)NC(=O)[C@H](CCC(N)=O)NC(=O)[C@@H]1CSSC[C@H](N)C(=O)N[C@@H](CC(=O)O)C(=O)N[C@@H](C)C(=O)N[C@@H]([C@@H](C)O)C(=O)N1)C(=O)N[C@@H](CC(=O)O)C(=O)N[C@@H](CC(=O)O)C(=O)N[C@H]1CSSC[C@@H](C(=O)N[C@@H](CCSC)C(=O)N[C@@H](CCCCN)C(=O)N[C@@H](CCC(N)=O)C(=O)N[C@@H](CCCCN)C(=O)N[C@@H](CCCCN)C(=O)N[C@@H](CCCCN)C(=O)N[C@@H](CCC(=O)O)C(=O)N[C@@H](Cc2ccccc2)C(=O)N[C@@H](CCCCN)C(N)=O)NC(=O)[C@H](CCC(=O)O)NC(=O)[C@H](CCCCN)NC(=O)[C@H](Cc2ccccc2)NC(=O)[C@H](C(C)C)NC(=O)[C@H](CO)NC(=O)[C@H](CC(N)=O)NC(=O)[C@@H]2CCCN2C(=O)[C@H](C(C)C)NC(=O)[C@H](CC(N)=O)NC(=O)[C@H](CO)NC(=O)[C@H](Cc2c[nH]cn2)NC(=O)[C@H](Cc2c[nH]cn2)NC(=O)[C@H](C)NC(=O)[C@H](CCC(N)=O)NC(=O)[C@H](CCCCN)NC(=O)[C@H](CCC(N)=O)NC1=O [compound 311] (H-CDATCQFRKAIDDCQKQAHHSNVPNSVFKECMKQKKKEFK-NH2; disulfide 1-5, 14-31) | 1 to 100 | > 100 |
| CDATCQFRKAIDDCAGRASHANVPGSVFKACMKQKKKEWKAGH-NH2 (disulfide 1-5, 14-31) [compound 425] | 0.01 to 1 | 0.01 to 1 |
| CDATCQFRKAIDDCQKQAHHSNVPGSVFKACLKQKKKEFKAG-NH2 (disulfide 1-5, 14-31) [compound 143] | 0.01 to 1 | 0.01 to 1 |
| CDATCQFRKAIDDCQKQAHHSNVPGSVFKVCMKQKKKEFKAG-NH2 (disulfide 1-5, 14-31) [compound 211] | 0.01 to 1 | 1 to 100 |
| CDATCQFRKAIDDCARQAHHSNVPGSVFKAC[SeMet]KQKKKEWKAGH (disulfide 1-5, 14-31) [compound 7] | 0.01 to 1 | 0.01 to 1 |
| CDATCQFRKAIDDCLWYARHSNVPGSVFKACMKQKKKEFKAG-NH2 (disulfide 1-5, 14-31) [compound 120] | 0.01 to 1 | 0.01 to 1 |
| CDATCQFRKAIDDCQKQAYHSNVPGNSVFKECMKQKKKEFK-NH2 (disulfide 1-5, 14-32) [compound 306] | 1 to 100 | 1 to 100 |
